Experimental data from patent US11458121B2, “Therapeutic compounds and methods to treat infection” (priority 2017, dated 2022).
≈ marks a conversion by molar mass, not a printed value. Counter-ions that a name gives are not always drawn. Like-named read-outs stand apart in the source and are kept apart here.

Assays:
[1] = system: P. aeruginosa PAO1; test: Intrinsic MIC assay (CLSI broth microdilution); assay type: cell-based; conditions: Pseudomonas aeruginosa, read-out: Antibiotic Activity Against P. aeruginosa Intrinsic MIC
Text: As used herein, the term “minimum inhibitory concentration (MIC)” refers to the lowest concentration of a compound (e.g., an antibiotic) that prevents visible growth of a bacterium. Assays for measuring the MIC of a compound are known in the art, for example, as described herein. As used herein, the term “intrinsic MIC” refers the MIC of a compound (e.g., an antibiotic) for the particular bacterial species that has not been pre-exposed to the compound. Intrinsic MIC Assays MIC assays were conducted in accordance with Clinical and Laboratory Standards Institute (CLSI) guidelines for broth microdilution. A 96-well plate containing cation-adjusted Mueller-Hinton (CAMH broth with 2-fold serial dilution of compounds was inoculated with log-phase bacterial at 5×10^5 CFU/mL. The final volume in each well was 100 μL. Each compound was tested in duplicate. The microtiter plates were incubated in an aerobic environment for 18 hours at 37° C. Then the bacterial growth was tested by reading the plate with a VersaMax plate reader (Molecular Devices, Inc.) at 600 nm. The MIC was defined as the lowest compound concentration that inhibited 90% of bacteria growth. The intrinsic MIC of the experimental EPIs was tested with the method described. […] The following Gram-negative bacterial strains were included in these assays: Pseudomonas aeruginosa PAO1

[2] = system: E. coli 25922; test: Intrinsic MIC assay (CLSI broth microdilution); assay type: cell-based, Escherichia coli; conditions: read-out: Antibiotic Activity Against E. coli Intrinsic MIC
Text: As used herein, the term “minimum inhibitory concentration (MIC)” refers to the lowest concentration of a compound (e.g., an antibiotic) that prevents visible growth of a bacterium. Assays for measuring the MIC of a compound are known in the art, for example, as described herein. As used herein, the term “intrinsic MIC” refers the MIC of a compound (e.g., an antibiotic) for the particular bacterial species that has not been pre-exposed to the compound. Intrinsic MIC Assays MIC assays were conducted in accordance with Clinical and Laboratory Standards Institute (CLSI) guidelines for broth microdilution. A 96-well plate containing cation-adjusted Mueller-Hinton (CAMH broth with 2-fold serial dilution of compounds was inoculated with log-phase bacterial at 5×10^5 CFU/mL. The final volume in each well was 100 μL. Each compound was tested in duplicate. The microtiter plates were incubated in an aerobic environment for 18 hours at 37° C. Then the bacterial growth was tested by reading the plate with a VersaMax plate reader (Molecular Devices, Inc.) at 600 nm. The MIC was defined as the lowest compound concentration that inhibited 90% of bacteria growth. The intrinsic MIC of the experimental EPIs was tested with the method described. […] The following Gram-negative bacterial strains were included in these assays: Escherichia coli ATCC 25922

[3] = system: P. aeruginosa PAO1; test: MIC assay in the presence of a bacterial efflux pump inhibitor (EPI); assay type: cell-based, Pseudomonas aeruginosa
Protocol: The ability of a compound to produce an antibiotic effect can be determined using a method as described in Example 42. […] MIC assays were conducted in accordance with Clinical and Laboratory Standards Institute (CLSI) guidelines for broth microdilution. A 96-well plate containing cation-adjusted Mueller-Hinton (CAMH broth with 2-fold serial dilution of compounds was inoculated with log-phase bacterial at 5×10^5 CFU/mL. The final volume in each well was 100 μL. Each compound was tested in duplicate. The microtiter plates were incubated in an aerobic environment for 18 hours at 37° C. Then the bacterial growth was tested by reading the plate with a VersaMax plate reader (Molecular Devices, Inc.) at 600 nm. The MIC was defined as the lowest compound concentration that inhibited 90% of bacteria growth. MIC Assays in the Presence of a Bacterial Efflux Inhibitor The EPI assay for the purposes of these studies represents a MIC assay in which the MIC of the antibiotic against the bacteria is tested in the presence of an experimental efflux pump inhibitor (EPI). The highest concentration of the EPI present in the assay typically is ½ of the intrinsic MIC of the compound. […] Using serial dilutions of the EPI, its enhancement of antibiotic activity was then evaluated. The relative EPI activity was decided by comparing the MIC of the antibiotic in the presence of the EPI compound with the intrinsic MIC of the antibiotic alone. For comparative purposes, we generally used EPIs at concentration of 12.5 and 6.25 μg/ml against varying concentration of our test antibiotic.

[4] = 18 h, P. aeruginosa PAO1, compound alone, without EPI, MIC = lowest concentration inhibiting 90% of growth
[5] = Escherichia coli, 18 h, E. coli 25922, compound alone, without EPI
[6] = P. aeruginosa PAO1, fold enhancement with 12.5 ug/ml EPI
[7] = P. aeruginosa PAO1, with 12.5 ug/ml of EPI (2S,4R)-4-(ammoniomethyl)-2-((6-(4-fluorophenyl)-1H-indole-2-carboxamido)methyl)pyrrolidin-1-ium

MIC [1, 4] | MIC [2, 5] | Enhancement (intrinsic MIC versus MIC with EPI) [3, 6] | Antibiotic Activity Against P. aeruginosa MIC with EPI [3, 7] | Compound | MIC ([1]; PAO1, 18 h) | MIC ([2]; Escherichia coli, 25922, 18 h) | Antibiotic Activity Against P. aeruginosa MIC with EPI [3] | Enhancement (intrinsic MIC versus MIC with EPI) [3]
> 256 µg/mL | > 256 µg/mL | (4x) | >64 µg/mL | O=C(NC1CCCc2c1[nH]c1ccc(Br)cc21)c1ccccc1 (stereo not shown) [Example 9, N-(6-Bromo-2,3,4,9-tetrahydro-1H-carbazol-1-yl)benzamide] | – | – | – | –
32 µg/mL (≈ 104 µM) | 16 µg/mL (≈ 51.9 µM) | – | 16 µg/mL | NCCNC1CCCc2c1[nH]c1ccc(Br)cc21 (stereo not shown) [Example 39, N^1-(6-bromo-2,3,4,9-tetrahydro-1H-carbazol-1-yl)ethane-1,2-diamine] | – | – | – | –
> 256 µg/mL | > 256 µg/mL | (>1x) | 256 µg/mL | NC1CC(C(=O)O)Cc2c1[nH]c1ccc(Br)cc21 (stereo not shown) [Example 28, 1-Amino-6-bromo-2,3,4,9-tetrahydro-1H-carb azole-3-carboxylic Acid] | – | – | – | –
> 256 µg/mL | 64 µg/mL | (>8x) | 32 µg/mL | Cl.NC1c2[nH]c3ccc(Br)cc3c2CCC1F (stereo not shown) [Example 20, 6-Bromo-2-fluoro-2,3,4,9-tetrahydro-1H-carbazol-1-amine Hydrogen Chloride Salt] | – | – | – | –
> 256 µg/mL | 4 µg/mL (≈ 13.5 µM) | (>64x) | 4 µg/mL | CC(C)C1Cc2c([nH]c3cc(Cl)c(Cl)cc23)C(N)C1 (stereo not shown) [Example 38, 6,7-Dichloro-3-isopropyl-2,3,4,9-tetrahydro-1H-carbazol-1-amine] | – | – | – | –
> 256 µg/mL | > 256 µg/mL | (4x) | >64 µg/mL | CC(C)(C)OC(=O)NC1CCCc2c1[nH]c1ccc(Br)cc21 (stereo not shown) [Example 6, Tert-Butyl (6-bromo-2,3,4,9-tetrahydro-1H-carbazol-1-yl)carbamate] | – | – | – | –
> 256 µg/mL | 128 µg/mL (≈ 381 µM) | (>2x) | 128 µg/mL | CN(C)C(=O)C1Cc2c([nH]c3ccc(Br)cc23)C(N)C1 (stereo not shown) [Example 33, 1-Amino-6-bromo-N,N-dimethyl-2,3,4,9-tetrahydro-1H-carbazole-3-carboxamide] | – | – | – | –
256 µg/mL (≈ 913 µM) | 16 µg/mL (≈ 57.1 µM) | (64x) | 4 µg/mL | NC1CCCc2c1[nH]c1ccc(-c3ccc(F)cc3)cc21 (stereo not shown) [Example 2, 6-(4-Fluorophenyl)-2,3,4,9-tetrahydro-1H-carbazol-1-amine] | – | – | – | –
256 µg/mL (≈ 917 µM) | 32 µg/mL (≈ 115 µM) | (32x) | 8 µg/mL | CNC1CCCc2c1[nH]c1ccc(Br)cc21 (stereo not shown) [Example 7, 6-Bromo-N-methyl-2,3,4,9-tetrahydro-1H-carbazol-1-amine] | – | – | – | –
> 256 µg/mL | > 256 µg/mL | (4x) | >64 µg/mL | CC(C)(C)OC(=O)NC1CCCc2c1[nH]c1cc(Br)ccc21 (stereo not shown) [Example 11, Tert-Butyl (7-bromo-2,3,4,9-tetrahydro-1H-carbazol-1-yl)carbamate] | – | – | – | –
32 µg/mL (≈ 125 µM) | 4 µg/mL (≈ 15.7 µM) | (>256x) | <0.125 µg/mL | NC1CCCc2c1[nH]c1ccc(Cl)c(Cl)c21 (stereo not shown) [Example 22, 5,6-Dichloro-2,3,4,9-tetrahydro-1H-carbazol-1-amine] | – | – | – | –
32 µg/mL (≈ 99.3 µM) | 32 µg/mL (≈ 99.3 µM) | – | – | NCCCNC1CCCc2c1[nH]c1ccc(Br)cc21 (stereo not shown) [Example 40, N^1-(6-Bromo-2,3,4,9-tetrahydro-1H-carbazol-1-yl)propane-1,3-diamine] | – | – | – | –

The remaining lines, values behind:

Compound | MIC [1, 4] | MIC [2, 5] | Enhancement (intrinsic MIC versus MIC with EPI) [3, 6] | Antibiotic Activity Against P. aeruginosa MIC with EPI [3, 7] | MIC ([1]; PAO1, 18 h) | MIC ([2]; Escherichia coli, 25922, 18 h) | Antibiotic Activity Against P. aeruginosa MIC with EPI [3] | Enhancement (intrinsic MIC versus MIC with EPI) [3]
NC1CCCc2c1[nH]c1ccc(OC(F)(F)F)cc21 (stereo not shown) [Example 15, 6-(Trifluoromethoxy)-2,3,4,9-tetrahydro-1H-carbazol-1-amine] | 128 µg/mL (≈ 474 µM) | 64 µg/mL (≈ 237 µM) | (8x) | 16 µg/mL | – | – | – | –
CC(C)(C)C1Cc2c([nH]c3ccc(Br)cc23)C(N)C1 (stereo not shown) [Example 36, 6-Bromo-3-(tert-butyl)-2,3,4,9-tetrahydro-1H-carbazol-1-amine] | > 256 µg/mL | 8 µg/mL (≈ 24.9 µM) | (>32x) | 8 µg/mL | – | – | – | –
NC1CCCc2c1[nH]c1cc(Br)ccc21 (stereo not shown) [Example 5a, 7-Bromo-2,3,4,9-tetrahydro-1H-carbazol-1-amine] | 64 µg/mL (≈ 241 µM) | 32 µg/mL (≈ 121 µM) | (64x) | 1 µg/mL | – | – | – | –
CC1(C)CCC(N)c2[nH]c3ccc(Br)cc3c21 (stereo not shown) [Example 24, 6-Bromo-4,4-dimethyl-2,3,4,9-tetrahydro-1H-carbazol-1-amine] | – | – | (4x) | 16 µg/mL | 64 µg/mL (≈ 218 µM) | 16 µg/mL (≈ 54.6 µM) | – | –
CC1CCc2c([nH]c3ccc(Br)cc23)C1N (stereo not shown) [Example 23, 6-Bromo-2-methyl-2,3,4,9-tetrahydro-1H-carbazol-1-amine] | 256 µg/mL (≈ 917 µM) | 16 µg/mL (≈ 57.3 µM) | (16x) | 16 µg/mL | – | – | – | –
NC1CC(c2ccccc2)Cc2c1[nH]c1ccc(Br)cc21 (stereo not shown) [Example 35, 6-Bromo-3-phenyl-2,3,4,9-tetrahydro-1H-carbazol-1-amine] | > 256 µg/mL | 8 µg/mL (≈ 23.4 µM) | (>32x) | 8 µg/mL | – | – | – | –
CC(C)C1CCC(N)c2[nH]c3ccc(Br)cc3c21.Cl (stereo not shown) [Example 25, 6-Bromo-4-isopropyl-2,3,4,9-tetrahydro-1H-carbazol-1-amine Hydrogen Chloride Salt] | – | – | – | – | 64 µg/mL | 8 µg/mL | 16 µg/mL | (4x)
NC1CCCc2c1[nH]c1ccc(F)cc21 (stereo not shown) [Example 12, 6-Fluoro-2,3,4,9-tetrahydro-1H-carbazol-1-amine] | 128 µg/mL (≈ 627 µM) | 64 µg/mL (≈ 313 µM) | (64x) | 2 µg/mL | – | – | – | –
CNCC1Cc2c([nH]c3ccc(Br)cc23)C(N)C1 (stereo not shown) [Example 41, 6-Bromo-3-((methylamino)methyl)-2,3,4,9-tetrahydro-1H-carbazol-1-amine Hydrogen Chloride Salt] | 128 µg/mL | 256 µg/mL | (4x) | 64 µg/mL | – | – | – | –
CC1(C)Cc2c([nH]c3ccc(Br)cc23)C(N)C1 (stereo not shown) [Example 26, 6-Bromo-3,3-dimethyl-2,3,4,9-tetrahydro-1H-carbazol-1-amine] | 64 µg/mL (≈ 218 µM) | 32 µg/mL (≈ 109 µM) | (16x) | 4 µg/mL | – | – | – | –
